Measurements as given in patent publication US11806363B1, “Green synthesis of silver nanoparticles using euphorbia dendroides aqueous extract” (King Faisal University, priority 2023, dated 2023).
Converted amounts (≈) assume the structure as drawn.

Columns and labels:
HepG2 cells = test: MTT cytotoxicity assay, HepG2 cells; assay type: cell-based; settings: Homo sapiens, 48 h treatment, triplicate, mean ±SD, read-out: IC50 (50% inhibition of cancer cell growth)
HCT-116 cells = test: MTT cytotoxicity assay, HCT-116 cells; assay type: cell-based; settings: Homo sapiens; HCT-116, MTT, 48 h treatment, triplicate, mean ±SD; read-out: IC50 (50% inhibition of cancer cell growth)

What does the source list for COc1cccc2c1C(=O)c1c(O)c3c(c(O)c1C2=O)C[C@@](O)(C(=O)CO)C[C@@H]3O[C@H]1C[C@H](N)[C@H](O)[C@H](C)O1 [DOX, doxorubicin]?
IC50 (HepG2 cells): 0.38 ± 0.07 µg/mL (≈ 0.699 µM); IC50 (HCT-116 cells): 0.86 ± 0.16 µg/mL (≈ 1.58 µM)
